{"source": "patent US20160193231A1", "about": "“RETT SYNDROME AND TREATMENTS THEREFORE” (RETT SYNDROME RESEARCH TRUST, priority 2013, published 2016)", "key": {"MECP2 mutant mice": {"test_system": "MECP2 mutant mice", "experiment": "Trait amelioration / symptom rescue in Mecp2 mutant mice", "assay_type": "in vivo, mouse", "settings": "for rescue of motor traits and longevity: male mice, drugs sub-cutaneously"}, "[1]": {"test_system": "129.Mecp2^tm1.1Bird/Y mice", "experiment": "Open field locomotor activity, Mecp2 null males", "assay_type": "in vivo, mouse"}, "Mecp2^tm1.1Bird/Y mice": {"test_system": "Mecp2^tm1.1Bird/Y mice", "experiment": "Peripheral fat measures of treated Mecp2 null males", "assay_type": "in vivo, mouse", "settings": "Example 6/FIG. 9; 25 mg/kg Sub-Q 2x per week", "protocol": "The preparation of the agents used in this Example was as follows: metformin hydrochloride, was dissolved in saline (Sigma). The day of injection, the metformin was diluted to 18 parts stock solution, 1 part DMSO, and 1 part ethanol, such that the desired dose for a 20 g mouse was given in 100 ul. […] The animals were treated starting at 5 weeks of age until the age of 10 weeks, or for a period of 5 weeks. Body weights were obtained weekly starting at 5 weeks of age prior to treatment, and ending at 10 weeks, at the end of study. Shown in the FIG. 9 are the weights after 3 weeks of treatment (at 8 weeks of age, panel A) and after 5 weeks of treatment (10 weeks of age, panel D)."}, "[2]": {"test_system": "129.Mecp2^tm1.1Bird/Y mice", "experiment": "Accelerating rotarod task, Mecp2 null males", "assay_type": "in vivo, mouse"}, "[3]": {"settings": "cited from earlier work"}, "[4]": {"settings": "in vivo; cited from earlier work"}, "cytochrome p450 enzymes": {"test_system": "cytochrome p450 enzymes", "settings": "cited from earlier work"}, "[5]": {"test_system": "129.Mecp2^tm1.1Bird/Y mice", "experiment": "Survival (longevity) of treated Mecp2 null male mice", "assay_type": "in vivo, mouse", "settings": "129.Mecp2^tm1.1Bird/Y males, fluvastatin 3 mg/kg s.c."}, "[6]": {"settings": "cited from earlier work", "remark": "listed apart in the source"}, "[7]": {"settings": "cited from earlier work", "remark": "listed apart in the source"}, "[8]": {"test_system": "129.Mecp2^tm1.1Bird/Y mice", "experiment": "Liver lipid measurement, Mecp2 null males", "assay_type": "in vivo, mouse", "settings": "P70; fluvastatin p=0.02; lovastatin p=0.386"}, "[9]": {"test_system": "129.Mecp2^tm1.1Bird/Y mice", "experiment": "Serum/plasma cholesterol, Mecp2 null males", "assay_type": "in vivo, mouse", "settings": "by P70; fluvastatin p=0.001, lovastatin p=0.001"}, "[10]": {"settings": "Example 6/FIG. 9, 25 mg/kg Sub-Q (3 mg/kg elsewhere in the source) 2x per week, vs vehicle"}}, "note": "Where a name gives a salt, the structure may show the parent alone. Read-outs that look alike come from different tables or passages of the source.", "data": [{"smiles": "Cl.F/C(COc1ccc2c(c1)[nH]c1ccccc12)=C1/CN2CCC1CC2", "note": "[(E)-2-[2-fluoro-2-(quinuclidin-3-ylidene)ethoxy]-9H-carbazole monohydrochloride]", "values": [{"measurement": "improvement of symptoms", "setting": "MECP2 mutant mice; Mecp2 mice, drugs targeting squalene synthase or squalene epoxidase", "result": "did not significantly improve symptoms"}]}, {"smiles": "O=S(=O)(c1ccccc1)N(CC(F)(F)F)c1ccc(C(O)(C(F)(F)F)C(F)(F)F)cc1", "note": "[T090317]", "values": [{"measurement": "motor performance, open field activity", "setting": "[1]; [10]", "result": "improved motor performance"}, {"measurement": "peripheral fat measures", "setting": "Mecp2^tm1.1Bird/Y mice", "result": "did not appear to improve"}, {"measurement": "motor performance, rotarod", "setting": "[2]; [10]", "result": "improved motor performance"}]}, {"smiles": "CC(C)c1c(C(=O)Nc2ccccc2)c(-c2ccccc2)c(-c2ccc(F)cc2)n1CC[C@@H](O)C[C@@H](O)CC(=O)O", "note": "[atorvastatin]", "values": [{"measurement": "rescue of motor traits and longevity", "setting": "MECP2 mutant mice", "result": "varying degrees of rescue"}]}, {"smiles": "CC(C)n1c(/C=C/C(O)CC(O)CC(=O)O)c(-c2ccc(F)cc2)c2ccccc21", "note": "(stereo not shown) [fluvastatin]", "values": [{"measurement": "Lipophilicity (LogD):", "setting": "[3]", "result": "1.00-1.25"}, {"measurement": "half-life", "setting": "[4]", "result": "approximately 96 hours"}, {"measurement": "Metabolized by:", "setting": "cytochrome p450 enzymes", "result": "Cyp2C9"}, {"measurement": "survival beyond 120 days", "setting": "[5]", "result": 57, "unit": "%"}, {"measurement": "median longevity", "setting": "[5]; compared to 87 days, p<0.0001", "result": 122, "unit": "days"}, {"measurement": "solubility in water", "setting": "[6]", "result": "soluble in water"}, {"measurement": "LD50 (oral):", "setting": "[7]; mouse, in vivo, po", "result": ">2000", "unit": "mg/kg"}]}, {"smiles": "CC[C@H](C)C(=O)O[C@H]1C[C@@H](C)C=C2C=C[C@H](C)[C@H](CC[C@@H]3C[C@@H](O)CC(=O)O3)[C@H]21", "note": "[lovastatin]", "values": [{"measurement": "Open field activity (beam breaks)", "setting": "[1]; P70 treated null males vs vehicle, fluvastatin p=0.026, lovastatin p=0.011", "result": "increased"}, {"measurement": "Lipophilicity (LogD):", "setting": "[3]", "result": "1.75-1.50"}, {"measurement": "rescue of motor traits and longevity", "setting": "MECP2 mutant mice", "result": "best rescue"}, {"measurement": "Metabolized by:", "setting": "cytochrome p450 enzymes", "result": "Cyp3A4"}, {"measurement": "elevated lipid concentration in livers", "setting": "[8]", "result": "ameliorates"}, {"measurement": "LD50 (oral):", "setting": "[7]; (mouse)", "result": ">1000", "unit": "mg/kg"}, {"measurement": "plasma cholesterol", "setting": "[9]", "result": "lowers"}, {"measurement": "Rotarod performance", "setting": "[2]; P56 treated null males vs vehicle, fluvastatin 3 mg/kg s.c. p=0.015, lovastatin […] s.c. p=0.009", "result": "improves"}]}, {"smiles": "CN(C)C(=N)N=C(N)N", "note": "[metformin, metformin hydrochloride]", "values": [{"measurement": "effect on Mecp2^tm1.1Bird/Y mice (FIG. 9 measures)", "setting": "MECP2 mutant mice; Example 6, 30 mg/kg IP 2x per week, 5 to 10 weeks of age, vs vehicle", "result": "little effect"}]}, {"smiles": "CCC(C)(C)C(=O)O[C@H]1C[C@@H](C)C=C2C=C[C@H](C)[C@H](CC[C@@H]3C[C@@H](O)CC(=O)O3)[C@H]21", "note": "[simvastatin]", "values": [{"measurement": "half-life", "setting": "[4]", "result": "2 to 3", "unit": "h"}]}]}
